Paper PMC9779727, “Identification of Novel Artemisinin Hybrids Induce Apoptosis and Ferroptosis in MCF-7 Cells” (International Journal of Molecular Sciences, 2022)

Tests used:
Format in all cases: cell-based, human
lung cancer A549 cells = experiment: MTT antiproliferation assay, A549; settings: means ± SD, n = 3
Excerpt: (§1) The target hybrids A1–A15 were screened for their antiproliferation activities against five human cancer cell lines (lung cancer A549 cells, breast cancer MCF-7 and MDA-MB-231 cells, colon cancer HCT116 cells and ovarian cancer SK-OV-3 cells) in vitro by the standard MTT method, and 5-fluorouracil (5-FU) and ART were coassayed as controls. […] Therefore, the most promising hybrid, A8, was chosen for further exploration of the preliminary mechanism of MCF-7 cell antiproliferation.
(§2) Cytotoxicity of test compounds against five different tumor cell lines were evaluated using an MTT assay in vitro. Cells were seeded into 96-well plates at a density of 5 × 10^4 cells per well and stabilized at 37 °C with 5% CO2 for 24 h. Compounds A1–A15, ART and 5-FU were added to each well at various concentrations and then the cells were incubated for 48 h. The MTT solution (100 μL 0.5 mg/mL^−1) was added to each well, and the cells were incubated for another 4 h. Then, 150 μL DMSO was added to each well and the absorbance of samples was measured at 492 nm. The IC50 values were calculated according to Logit method after getting the inhibitory rate.

[1] = tested on: breast cancer MCF-7 cells; experiment: MTT antiproliferation assay, MCF-7; settings: means ± SD, n = 3
Excerpt: as §1, §2

[2] = tested on: colon cancer HCT116 cells; experiment: MTT antiproliferation assay, HCT116; settings: means ± SD, n = 3
Excerpt: as §1, §2

[3] = tested on: ovarian cancer SK-OV-3 cells; experiment: MTT antiproliferation assay, SK-OV-3; settings: means ± SD, n = 3
Excerpt: as §1, §2

[4] = tested on: breast cancer MDA-MB-231 cells; experiment: MTT antiproliferation assay, MDA-MB-231; settings: means ± SD, n = 3
Excerpt: as §1, §2

MCF-7 cells = experiment: Lipid peroxidation (MDA) detection; settings: MCF-7, added to A8 treatment
Excerpt: We also determined the effect of A8 on the expression of GSH and MDA (lipid peroxidation).
Lipid peroxidation assay kit (Beyotime, Shanghai, China) was used to detect malonaldehyde (MDA), together with GSH level assay, present in samples, as per the manufacturer’s instruction with slight modifications.

GPX4 = experiment: Western blotting, GPX4 expression; settings: MCF-7, added to A8 treatment
Protocol: We examined the effect of A8 on the expression of GPX4 as well, which is vital in preventing ferroptosis. […] Thus, we concluded that A8 induced the accumulation of ROS and lipid peroxidation and suppressed GSH levels and the expression of GPX4, thereby leading to the induction of ferroptosis.
MCF-7 cells were seeded at a density of 4 × 10^5 cells per well and treated with various concentrations of compound A8 (0, 2.5, 5 and 10 μM) for 48 h. After this, cells were collected and washed twice with ice-cold DPBS. The pellets were resuspended in a total protein extraction buffer (20 mM HEPES, 350 mM NaCl, 20% glycerol, 1% NP-40, 1 mM MgCl2, 0.5 mM EDTA, 0.1 mM EGTA, 0.1 mM DTT, 0.1 mM PMSF) containing a protease inhibitor cocktail and incubated on ice for 30 min with intermittent mixing. The protein concentration was measured using the Bradford reagent (Bio-Rad Laboratories Inc., Hercules, CA, USA). An equal amount (20 μg) of protein was loaded on 10% polyacrylamide gels and transferred to a nitrocellulose membrane. After blocking with 5% skimmed milk, the membrane was incubated at 4 °C overnight with specific primary antibodies. The membrane was washed and incubated at room temperature for 1 h with secondary antibodies conjugated with horseradish peroxidase (HRP). Finally, the immunoblot was developed for visualization using a chemiluminescence kit. […]

O=c1[nH]cc(F)c(=O)[nH]1 [5FU, 5-fluorouracil, reference compound]
IC50 (lung cancer A549 cells; Homo sapiens, A549, 48 h): > 30 µM
IC50 ([1]; Homo sapiens, MCF7, 48 h): 26.1 ± 0.87 µM
IC50 ([2]; Homo sapiens, HCT-116, 48 h): 18.4 ± 1.14 µM
IC50 ([3]; Homo sapiens, SK-OV-3, 48 h): > 30 µM
IC50 ([4]; Homo sapiens, MDA-MB-231, 48 h): 27.7 ± 1.23 µM

CC1CCC2C(C)C(OC(=O)CCC(=O)NCc3nnc(Nc4ccc(OC(F)(F)F)cc4)o3)OC3OC4(C)CCC1C32OO4 (centres unmarked) [A1]
IC50 (lung cancer A549 cells; 48 h): > 30 µM
IC50 ([1]; 48 h): 5.2 ± 1.38 µM
IC50 ([2]; 48 h): > 30 µM
IC50 ([3]; 48 h): > 30 µM
IC50 ([4]; 48 h): > 30 µM

Cc1ccc(Nc2nnc(CNC(=O)CCC(=O)OC3OC4OC5(C)CCC6C(C)CCC(C3C)C46OO5)o2)cc1 (centres unmarked) [A2]
IC50 (lung cancer A549 cells; 48 h): > 30 µM
IC50 ([1]; 48 h): 4.26 ± 0.17 µM
IC50 ([2]; 48 h): 14.8 ± 1.77 µM
IC50 ([3]; 48 h): > 30 µM
IC50 ([4]; 48 h): 4.89 ± 1.58 µM

CCOc1ccccc1Nc1nnc(CNC(=O)CCC(=O)OC2OC3OC4(C)CCC5C(C)CCC(C2C)C35OO4)o1 (centres unmarked) [A3]
IC50 (lung cancer A549 cells; 48 h): > 30 µM
IC50 ([1]; 48 h): 6.82 ± 0.25 µM
IC50 ([2]; 48 h): > 30 µM
IC50 ([3]; 48 h): > 30 µM
IC50 ([4]; 48 h): > 30 µM

CC1CCC2C(C)C(OC(=O)CCC(=O)NCc3nnc(Nc4c(F)cccc4F)o3)OC3OC4(C)CCC1C32OO4 (centres unmarked) [A4]
IC50 (lung cancer A549 cells; 48 h): > 30 µM
IC50 ([1]; 48 h): > 30 µM
IC50 ([2]; 48 h): > 30 µM
IC50 ([3]; 48 h): > 30 µM
IC50 ([4]; 48 h): > 30 µM

CC1CCC2C(C)C(OC(=O)CCC(=O)NCc3nnc(Nc4ccc(C(F)(F)F)cc4)o3)OC3OC4(C)CCC1C32OO4 (centres unmarked) [A5]
IC50 (lung cancer A549 cells; 48 h): > 30 µM
IC50 ([1]; 48 h): > 30 µM
IC50 ([2]; 48 h): > 30 µM
IC50 ([3]; 48 h): > 30 µM
IC50 ([4]; 48 h): > 30 µM

CC1CCC2C(C)C(OC(=O)CCC(=O)NCc3nnc(Nc4ccc(Cl)cc4)o3)OC3OC4(C)CCC1C32OO4 (centres unmarked) [A6]
IC50 (lung cancer A549 cells; 48 h): > 30 µM
IC50 ([1]; 48 h): > 30 µM
IC50 ([2]; 48 h): > 30 µM
IC50 ([3]; 48 h): > 30 µM
IC50 ([4]; 48 h): > 30 µM

CC1CCC2C(C)C(OC(=O)CCC(=O)NCc3nnc(Nc4cc(Br)ccc4Br)o3)OC3OC4(C)CCC1C32OO4 (centres unmarked) [A7]
IC50 (lung cancer A549 cells; 48 h): > 30 µM
IC50 ([1]; 48 h): > 30 µM
IC50 ([2]; 48 h): > 30 µM
IC50 ([3]; 48 h): > 30 µM
IC50 ([4]; 48 h): > 30 µM

CC1CCC2C(C)C(OC(=O)CCC(=O)NCc3nnc(Nc4ccccc4F)o3)OC3OC4(C)CCC1C32OO4 (centres unmarked) [A9]
IC50 (lung cancer A549 cells; 48 h): > 30 µM
IC50 ([1]; 48 h): 8.89 ± 0.39 µM
IC50 ([2]; 48 h): > 30 µM
IC50 ([3]; 48 h): > 30 µM
IC50 ([4]; 48 h): > 30 µM

CC1CCC2C(C)C(OC(=O)CCC(=O)NCc3nnc(Nc4ccc(C(C)(C)C)cc4)o3)OC3OC4(C)CCC1C32OO4 (centres unmarked) [A10]
IC50 (lung cancer A549 cells; 48 h): > 30 µM
IC50 ([1]; 48 h): 11.1 ± 1.28 µM
IC50 ([2]; 48 h): > 30 µM
IC50 ([3]; 48 h): > 30 µM
IC50 ([4]; 48 h): > 30 µM

CC1CCC2C(C)C(OC(=O)CCC(=O)NCc3nnc(Nc4ccc(Br)cc4)o3)OC3OC4(C)CCC1C32OO4 (centres unmarked) [A11]
IC50 (lung cancer A549 cells; 48 h): > 30 µM
IC50 ([1]; 48 h): > 30 µM
IC50 ([2]; 48 h): > 30 µM
IC50 ([3]; 48 h): > 30 µM
IC50 ([4]; 48 h): > 30 µM

Cc1cc(C)cc(Nc2nnc(CNC(=O)CCC(=O)OC3OC4OC5(C)CCC6C(C)CCC(C3C)C46OO5)o2)c1 (centres unmarked) [A13]
IC50 (lung cancer A549 cells; 48 h): > 30 µM
IC50 ([1]; 48 h): 9.72 ± 0.11 µM
IC50 ([2]; 48 h): > 30 µM
IC50 ([3]; 48 h): > 30 µM
IC50 ([4]; 48 h): > 30 µM

COc1ccc(Nc2nnc(CNC(=O)CCC(=O)OC3OC4OC5(C)CCC6C(C)CCC(C3C)C46OO5)o2)cc1 (centres unmarked) [A14]
IC50 (lung cancer A549 cells; 48 h): > 30 µM
IC50 ([1]; 48 h): 6.86 ± 0.73 µM
IC50 ([2]; 48 h): > 30 µM
IC50 ([3]; 48 h): > 30 µM
IC50 ([4]; 48 h): 19.4 ± 0.91 µM

Cc1ccc(Nc2nnc(CNC(=O)CCC(=O)OC3OC4OC5(C)CCC6C(C)CCC(C3C)C46OO5)o2)c(C)c1 (centres unmarked) [A15]
IC50 (lung cancer A549 cells; 48 h): > 30 µM
IC50 ([1]; 48 h): > 30 µM
IC50 ([2]; 48 h): > 30 µM
IC50 ([3]; 48 h): > 30 µM
IC50 ([4]; 48 h): > 30 µM

C[C@@H]1CC[C@H]2[C@@H](C)C(=O)O[C@@H]3O[C@@]4(C)CC[C@@H]1[C@]32OO4 [ART, Artemisinin]
IC50 (lung cancer A549 cells; Homo sapiens, A549, 48 h): 27.2 ± 0.67 µM
IC50 ([1]; Homo sapiens, MCF7, 48 h): > 30 µM
IC50 ([2]; Homo sapiens, HCT-116, 48 h): > 30 µM
IC50 ([3]; Homo sapiens, SK-OV-3, 48 h): > 30 µM
IC50 ([4]; Homo sapiens, MDA-MB-231, 48 h): > 30 µM

CCOC(=O)c1ccc(NC2CCCCC2)c(N)c1 [Fer-1, ferrostatin-1, reference compound]
effect on A8-induced lipid peroxide accumulation (in words) (MCF-7 cells): reversed lipid peroxide accumulation
effect on A8-suppressed GPX4 expression (in words) (GPX4): restored the expression of GPX4
